Measurements: US4055648A, “Papaverine thienyl-carboxylates and medicaments containing them” (Choay S.A., priority 1974, dated 1977)
“Also recorded” adds a separate entry of the source. Counter-ions that a name gives are not always drawn.

What was measured:
solubility = format: physicochemical
platelet adhesivity = assay: in vivo platelet adhesivity in thrombin-sensitized rabbit; conditions: thrombin 20 U i.v.
Protocol: (§1) The technique used is that described in the study "Disseminated and localized intravascular coagulations" of C. Raby, Masson et Cie, 1970, p. 91-93.
(§2) The parameter used in this technique is the level of platelet adhesivity. The blood to be tested is run through a column of glass beads. Platelet counts are carried out on the blood before and after passage respectively through the glass beads. The difference between these two counts enables the level of platelet adhesivity to be estimated. Comparison of the adhesivity ratios, measured in the treated animals and in the controlled animals, enables the effect of the product under test to be estimated.
In the in vivo test the animal to be tested (the rabbit) is injected with thrombin (20 U) by the intravenous route, for the purpose of sensitizing the platelets, and the product under study is then injected. The behavior of the platelets is studied by samples taken before and after administration of the product under study.
(§3) Papaverine thienyl-2-carboxylate has, in all these tests, been applied in the dissolved state in a 1 % aquous solution of methanol in isotonic chloride solution, in the proportion of 13 mg of papaverine thienyl-2-carboxylate per 100 ml of this solution.
30 Animals were treated in the in vivo tests:
10 animals with the thrombin alone (control animals), […]

[1] = system: unilateral cerebral oedema; assay: unilateral cerebral oedema: cortical electrogenesis ("R" index) and residual cortical reactivity, intraduodenal route; format: in vivo, rabbit
Protocol: The effect of a medicament on the oxygen and glucose metabolisms is estimated, in this test, by the reduction in the deleterious effects of oedema on certain parameters with respect to the controls.
The technique used is that described in the work "Aggressology" 1972, 13, Vol. IV, p. 257-259 (M.G. Borzex, M. Labos, J. Cahn). The principle of the test consists of producing unilateral ablation of a bone flap of 7 to 10 mm diameter in the occipital region. The incision, 48 hours later, of the dura mater or dural (membrane which surrounds the brain) results in the formation of an oedema.
Two essential parameters are selected to judge the seriousness of the oedematous effect and to subsequently permit estimation of the effects of the compound under study: electrogenesis on the "injured" hemisphere and the development of residual cortical reactivity in this same hemisphere.
The electrogenesis is judged by variations in the index (R), defined as the ratio of the number of rapid rhythms (theta arousal rhythm) to the number of slow waves of the electrocorticogram (determined by electroencephalography). On the injured side, the size of the slow waves tends to increase and that of the thetarhythm connected with the arousal response to be eliminated.
The residual cortical reactivity of the hemisphere carrying the cerebral oedema expresses the percentage of reactivity which persists with regard to a sensorial stimulation (auditive stimulation or nociceptive stimulation of the cutanous nerve ends by pinching of the dorsal skin) despite the oedematous degradation.
An active medicament tends to increase the value of the "R" index and to reestablish the residual cortical reactivity of the animals which have undergone the operation. The activities of the medicament expressed in % growth for the index R, and in % growth for the residual cortical reactivity, are compared with results observed in the controls.
The study was carried out on 42 male rabbits, active, of average weight 2.5 kg (and in eight control animals). The product to be tested (papaverine thienyl-2-carboxylate) was administered by the intraduodenal route, […] after ablation of the bone flap and just before the incision of the dural. This route of administration was selected since it is equivalent to the administration by the oral route.
The rabbits studied were divided in the following manner:
a series of eight "control" animals receiving 2 ml/kg of isotonic chloride solution;
three series of eight rabbits, each having received respectively 5, 10 and 20 mg/kg of papaverine hydrochloride;
two series of eight animals, each receiving respectively 6.2 and 12.4 mg/kg of papaverine thienyl-2-carboxylate (dissolved in alcoholized water, containing 1 ml of alcohol per 30 ml of water);
lastly, two rabbits receiving 2 mg/kg of papaverine hydrochloride dissolved in alcoholized water.
The doses of 5 and 10 mg/kg of papaverine hydrochloride correspond respectively to doses of 6.2 and 12.4 mg/kg of papaverine thienyl-2-carboxylate, if reduced to the corresponding doses of papaverine-base (respectively 4.51 and 9.02 mg/kg).
The development of the two above indicated parameters (expressed below in average values) is observed for 30 hours following the incision of the dural.

[2] = administration in repeated doses; cited from earlier work
[3] = system: platelet adhesivity (blood); assay: in vitro platelet adhesivity (glass bead column, Raby technique); format: cell-based; conditions: at equal doses expressed in terms of papaverine base
Protocol: as §1, §2
In in vitro test the levels of platelet adhesivity measured on control specimens of blood and on blood specimens to which have previously been added doses of the product under test, are compared.
as §3

LD50 by the oral route = conditions: in vivo, mouse
Description: Study of the LD50 (by the oral route) in the mouse has established the complete inoccuousness of papaverine thienyl-carboxylates.

[4] = system: platelet adhesivity; disturbances of electrogenesis at the level of the brain; assay: overall comparison of papaverinic activity (platelet adhesivity, brain disturbances, cortical reactivity); conditions: associated with / expressed as papaverine base

## COc1ccc(Cc2nccc3cc(OC)c(OC)cc23)cc1OC [papaverine thienyl-3-carboxylate, Papaverine thienyl-3-carboxylate]
solubility; hot ethanol
  solubility in hot ethanol: Soluble
solubility
  solubility in methanol: Soluble
solubility; water, read-out: solutions in water, content of product
  solubility: ≤ 10000 µg/mL

## COc1ccc(Cc2nccc3cc(OC)c(OC)cc23)cc1OC [papaverine citrate, reference compound]
Platelet adhesivity; 32 γ/ml (20 γ/ml papaverine base)
  effect on platelet adhesivity: inactive

## COc1ccc(Cc2nccc3cc(OC)c(OC)cc23)cc1OC [papaverine hydrochloride, reference compound]
[1]; 5 mg/kg intraduodenal (4.51 mg/kg papaverine base), hydrochloride
  activity in cerebral oedema: practically inactive; also recorded: practically ineffective
[1]; 10 mg/kg intraduodenal
  treated animals with biological effect: about 50%
[1]; 10 mg/kg intraduodenal, 2 hours following administration
  rabbits with improved residual cortical reactivity: four rabbits out of eight
[1]; 10 mg/kg intraduodenal, 2 hours following administration, average in eight rabbits
  improvement of residual cortical reactivity (average): 29%
[1]; 10 mg/kg intraduodenal, between 4 and 6 hours
  rise in the "R" index: 14%
[1]; 10 mg/kg intraduodenal, first 4 hours
  rise in the "R" index: 19%
[1]; 20 mg/kg intraduodenal
  animals affected ("R" ratio): six animals in eight
[1]; 20 mg/kg intraduodenal, between 4 and 6 hours
  improvement of residual cortical reactivity: about 23%
[1]; 20 mg/kg intraduodenal, during 4 hours, same proportion as "R" ratio
  improvement of residual cortical reactivity: improved in the same proportion

## COc1ccc(Cc2nccc3cc(OC)c(OC)cc23)cc1OC [papaverine]
[2]
  secondary effects: somnolence, constipation, increased excitability of the reflexes and digestive disorders

## COc1ccc(Cc2nccc3cc(OC)c(OC)cc23)cc1OC [papaverine thienyl-2-carboxylate]
solubility
  solubility in methanol: Soluble
solubility; warm ethanol
  solubility in warm ethanol: Soluble
[1]; 6.2 mg/kg intraduodenal
  activity in cerebral oedema: active
  effect compared with papaverine hydrochloride 20 mg/kg: rather similar to that exerted by a dose of 20 mg/kg of papaverine hydrochloride
[1]; 6.2 mg/kg intraduodenal (4.51 mg/kg papaverine base)
  rabbits with very distinct improvement of the two parameters: five rabbits out of eight
[1]; 6.2 mg/kg intraduodenal, between second and fourth hours, average in eight rabbits
  extension in the duration of the arousal reactions on the injured hemisphere: 45.4%
[1]; 6.2 mg/kg intraduodenal, five rabbits out of eight
  duration of improvement of the two parameters: at least 4 hours
[1]; 12.4 mg/kg intraduodenal
  effect compared with papaverine hydrochloride 20 mg/kg: slightly more intense effect and more prolonged than a dose twice as great of papaverine hydrochloride
  persistence of improvement of residual cortical reactivity: remaining substantially stable during the first 6 hours
  rabbits with particularly distinct effect: seven rabbits out of eight
[1]; 12.4 mg/kg intraduodenal (9.02 mg/kg papaverine base)
  average rise in the "R" index: 38.5%
[1]; 12.4 mg/kg intraduodenal, maximum effect between 2 and 4 hours, eight rabbits
  average improvement of residual cortical reactivity: 54.2%
[1]; intraduodenal
  activity on residual cortical reactivity compared with papaverine hydrochloride: much more marked activity
[1]; intraduodenal, collected results
  activity compared with papaverine hydrochloride: distinctly more active than papaverine hydrochloride
[3]
  activity relative to known salts of papaverine: considerably greater than that of the known salts of papaverine used
LD50 by the oral route
  LD50 at 48 h: 1300 mg/kg
Platelet adhesivity; 2.88 γ/ml (2.10 γ/ml papaverine base)
  effect on platelet adhesivity: act favourably on the adhesivity rate of the platelets
[4]
  papaverinic activity compared with known papaverine salts: to a much higher degree; also recorded: distinctly higher than the salts of papaverine used until now
